System: PTZ-induced generalized clonic seizures
Test: Pentylenetetrazol seizure threshold test (PTZ-T)
Format: in vivo
Details: for Cases of death (within 30 min) / Latency to the first gen. Clonus / Latency to the first gen. clonus (% of control) / latency to the onset of the first clonic seizures at higher doses / Latency to the first gen. Clonus (% control): mice; for Cases of death (within 30 min): n=12; for Latency to the first gen. Clonus: mean ± SEM; for latency to the onset of the first clonic seizures at higher doses: compounds alone, PTZ 87 mg/kg s.c.
Procedure: Unrestrained mice, placed in separate full-view Plexiglas cages, were injected with the convulsant drug PTZ, a non-competitive GABAA receptor antagonist, at a dose of 87 mg/kg s.c. in the neck and the appearance of the first generalized clonus (repeated clonic seizures of the fore- and hindlimbs lasting ≥3 s with an accompanying loss of righting reflex) was recorded during individual observation for 30 min (see [69]). […] Group sizes of 12 mice were used in all experiments. Control groups, which received vehicle, were tested together with the compound-treated group on the same experimental day. The number of animals in the group with a generalized clonic seizure and the latency time to its onset were analysed for statistical significance. In the absence of seizures within 30 min, the latency was taken as 1800 s.
For the seizure tests (MES-T, PTZ-T, PTZ-kindling), BBG and TIIAS was dissolved in polyethylene glycol (PEG BioUltra, 400, Sigma-Aldrich), diluted to 20% with aqua (aqua ad iniectabilia, Braun, Melsungen, Germany). AFC was solubilized in ≥97% N,N-dimethylacetamide (DMA, Sigma-Aldrich), vortexed and diluted with 45% 2-hydroxypropyl-ß-cyclodextrin (ß-CD, Sigma-Aldrich) (final ratio of the vehicle 1:9). JNJ-47965567 was solubilized in two equivalents of 1N HCl, vortexed and sonicated (until the compound was mostly diluted) and then 30% of sulfobutylether-ß-cyclodextrin (SBE-ß-CD, Toronto Res. Chemicals, Toronto, Canada) was slowly added. The pH was adjusted with 1N NaOH (similar amount of NaOH as HCl), all with continuous stirring. PTZ was dissolved in 0.9% NaCl-solution, carbamazepine, ethosuximide and Ca-valproate were administered in a 2% (w/v) suspension of hydroxyethylcellulose. The drug solutions or suspensions were prepared immediately before use; all doses refer to the salts. Animals in the control group received equivalent volumes of the vehicle (in mice always 10 ml/kg, in rats 1 ml/kg [JNJ], 3 ml/kg [AFC] or 4 ml/kg [BBG, TIIAS], depending on the solubility of the different compounds). Doses and peak time effects were selected on the basis of effective doses from corresponding in vivo studies in the literature: BBG (e.g.), tanshinone IIA (e.g.) and from manufacturer’s experimental data: AFC, JNJ (see, [80]).
Data were analysed using SigmaPlot (vers. 12.0, Systat Software, Erkrath, Germany) and SPSS (IBM SPSS Statistics 20, Ehningen, Germany), respectively. Results are expressed as mean ± SEM. In the fluorometric Ca^2+ assays, concentration-response curves were fitted by using a 4-parameter logistic function (Hill slope, Emin, Emax, IC50). […] In the MES-T, the current intensity inducing tonic hindlimb extensions in 50% of the mice (CC50 values with confidence limits for 95% probability) and the statistical significance was calculated using Probit analysis (SPSS). In the case of multiple comparisons between different groups α-correction was performed so that only differences with a P value of < 0.01 were considered significant. In the PTZ-T, the number of animals in the group with clonic seizures and the latency time were analysed using Fisher's exact probability test and the Mann-Whitney rank sum test, respectively. For multiple comparisons of the latency time a one-way ANOVA with the Holm-Sidak post hoc test was used. The influence of AFC on the plasma and brain concentrations of the antiepileptic drugs was statistical compared using the same procedure. In the PTZ-kindling model, the mean seizure stage within a group was calculated in relation to the number of PTZ-injections. Statistical comparison between vehicle- and compound-treated groups in this model was performed with two-way repeated measures ANOVA, followed by the Holm-Sidak post hoc test. The mean number of PTZ-injections needed to produce the first generalized seizure (≥ stage 3 convulsions) in the vehicle- versus compound-treated groups was statistically compared using a Mann-Whitney rank sum test.

[1] = 30 mg/kg i.p. 45 min before PTZ 87 mg/kg s.c.
[2] = 50 mg/kg i.p. 45 min before PTZ 87 mg/kg s.c.
[3] = 15 mg/kg i.p. 30 min before PTZ 87 mg/kg s.c.
[4] = 30 mg/kg i.p. 30 min before PTZ 87 mg/kg s.c.
[5] = series JNJ-47965567 15 mg/kg and/or ethosuximide 100 mg/kg i.p. 30 min before PTZ 87 mg/kg s.c.
[6] = series JNJ-47965567 30 mg/kg and/or ethosuximide 100 mg/kg i.p. 30 min before PTZ 87 mg/kg s.c.
[7] = series JNJ-47965567 15 mg/kg and/or ethosuximide 100 mg/kg i.p. 30 min before PTZ, control 4.74 ± 0.64 min
[8] = series JNJ-47965567 15 mg/kg and/or ethosuximide 100 mg/kg, all i.p. 30 min before PTZ 87 mg/kg s.c.
[9] = series JNJ-47965567 30 mg/kg and/or ethosuximide 100 mg/kg i.p. 30 min before PTZ, control 6.14 ± 1.34 min
[10] = series JNJ-47965567 30 mg/kg and/or ethosuximide 100 mg/kg, all i.p. 30 min before PTZ 87 mg/kg s.c.
[11] = series AFC-5128 25 mg/kg and/or ethosuximide 100 mg/kg, all i.p. 30 min before PTZ 87 mg/kg s.c.
[12] = series AFC-5128 50 mg/kg and/or ethosuximide 100 mg/kg, all i.p. 30 min before PTZ 87 mg/kg s.c.

SMILES: Cc1c(S(=O)(=O)[O-])oc2c1C(=O)C(=O)c1c-2ccc2c1CCCC2(C)C.[Na+] [Tanshinone TIIAS, tanshinone IIS sulfonic sodium]
- # of mice/ with seizure [1]: 12/11
- Cases of death (within 30 min) [1]: 0
- Latency to the first gen. Clonus [1]: 10.08 ± 2.64 min
- Latency to the first gen. clonus (% of control) (30 mg/kg i.p. 45 min before PTZ 87 mg/kg s.c., vehicle 5.00 ± 1.04 min): 201.6 ± 52.8%
- latency to the onset of the first clonic seizures at higher doses: tended to increase the latency

SMILES: CCOc1ccc(Nc2ccc(/C(=C3C=C/C(=[N+](/CC)Cc4cccc(S(=O)(=O)[O-])c4)C=C/3C)c3ccc(N(CC)Cc4cccc(S(=O)(=O)O)c4)cc3C)cc2)cc1 [Brilliant Blue G]
- # of mice/ with seizure [2]: 12/10
- Cases of death (within 30 min) [2]: 2
- Latency to the first gen. Clonus (50 mg/kg i.p. 45 min before PTZ 87 mg/kg s.c., P < 0.05): 13.91 ± 2.38 min
- Latency to the first gen. clonus (% of control) (50 mg/kg i.p. 45 min before PTZ 87 mg/kg s.c., vehicle 6.77 ± 2.23 min): 205.5 ± 35.2%
- latency to the onset of the first clonic seizures at higher doses: tended to increase the latency

SMILES: O=C(NCC1(N2CCN(c3ccccc3)CC2)CCOCC1)c1cccnc1Sc1ccccc1 [JNJ-47965567, N-[[4-(4-phenyl-piperazin-1-yl)tetrahydro-2H-pyran-4-yl]-methyl]-2-(phenyl-thio) nicotinamide]
- # of mice/ with seizure [3]: 12/12
- # of mice/ with seizure [4]: 12/10
- Cases of death (within 30 min) [3]: 2
- Cases of death (within 30 min) [4]: 1
- Cases of death (within 30 min) [5]: 3
- Cases of death (within 30 min) [6]: 1
- Latency to the first gen. Clonus [3]: 7.31 ± 2.19 min
- Latency to the first gen. clonus (% of control) (15 mg/kg i.p. 30 min before PTZ 87 mg/kg s.c., vehicle 6.94 ± 1.31 min): 105.3 ± 31.6%
- Latency to the first gen. Clonus [4]: 13.66 ± 2.94 min
- Latency to the first gen. clonus (% of control) (30 mg/kg i.p. 30 min before PTZ 87 mg/kg s.c., vehicle 7.13 ± 1.49 min): 191.6 ± 41.2%
- latency to the onset of the first clonic seizures at higher doses: tended to increase the latency
- Latency to the first gen. Clonus (% control) [7]: 109.4 ± 25.1%
- Latency to the first gen. Clonus [8]: 5.19 ± 1.19 min
- Latency to the first gen. Clonus (% control) [9]: 153.4 ± 47.1%
- Latency to the first gen. Clonus [10]: 9.42 ± 2.89 min
- # of mice/ with seizures [8]: 12/12
- # of mice/ with seizures [10]: 12/10

SMILES: CCC1(C)CC(=O)NC1=O (stereo not shown) [Ethosuximide, ethosuximide]
- Cases of death (within 30 min) (series AFC-5128 25 mg/kg and/or ethosuximide 100 mg/kg i.p. 30 min before PTZ 87 mg/kg s.c.): 1
- Cases of death (within 30 min) (series AFC-5128 50 mg/kg and/or ethosuximide 100 mg/kg i.p. 30 min before PTZ 87 mg/kg s.c.): 1
- Cases of death (within 30 min) [5]: 0
- Cases of death (within 30 min) [6]: 1
- Latency to the first gen. Clonus (% control) (series AFC-5128 25 mg/kg and/or ethosuximide 100 mg/kg i.p. 30 min before PTZ, control 4.53 ± 0.56 min): 312.6 ± 65.8%
- Latency to the first gen. Clonus [11]: 14.16 ± 2.98 min
- Latency to the first gen. Clonus (% control) (series AFC-5128 50 mg/kg and/or ethosuximide 100 mg/kg i.p. 30 min before PTZ, control 10.83 ± 2.67 min): 200.6 ± 27.0%
- Latency to the first gen. Clonus [12]: 21.72 ± 3.03 min
- Latency to the first gen. Clonus (% control) [7]: 244.3 ± 75.3%
- Latency to the first gen. Clonus [8]: 11.58 ± 3.57 min
- Latency to the first gen. Clonus (% control) [9]: 209.0 ± 51.1%
- Latency to the first gen. Clonus [10]: 12.83 ± 3.14 min
- # of mice/ with seizures [11]: 12/8^+
- # of mice/ with seizures [12]: 12/7^+
- # of mice/ with seizures [8]: 12/8^+
- # of mice/ with seizures [10]: 12/8^+

— paper PMC4900628, “Critical Evaluation of P2X7 Receptor Antagonists in Selected Seizure Models” (PLoS ONE, 2016)
